# Experimental data from patent US11001561B2, “Pyrimidinone derivatives as SHP2 antagonists” (MERCK PATENT GMBH, priority 2019, dated 2021).
# Read-outs that look alike come from different tables or passages of the source.
# Legend:
# [1] = target: Full length SHP2 protein (Recombinant Human SHP-2) (Homo sapiens (Human), UniProt Q06124); assay: SHP2 biochemical assay (DiFMUP substrate, activating peptide IRSI_2pY); settings: activating peptide IRSI_2pY 140 nM, DiFMUP, 60 min
# Method: The inhibition of SHP2 by compounds of the invention was monitored using the surrogate substrate DiFMUP after protein activation by a peptide bearing two appropriately spaced phosphotyrosine. […] The generation of the DiFMU product by activated SHP2 was monitored through Fluorescence measurement with a PerkinElmer Envision reader. The inhibitor dose response curves were analyzed with Genedata Screener.
# pERK1/2 in KYSE520 cells = assay: p-Erk cellular assay in KYSE520 (Mesoscale); format: cell-based; settings: read-out: pERK1/2 in Cell KYSE520 IC50
# Method: p-Erk Cellular Assay in KYSE520: The effect of SHP2 inhibitors on pERK level was assessed using phospho-specific antibody using Mesoscale quantification platform. For measuring change in pERK levels using mesoscale, 30,000 cells of KYSE520 cells were plated in 96-well tissue culture treated plate in 175 μl volume of media. After an overnight incubation at 37° C., various SHP2 inhibitors were added in different concentration to each well maintaining duplicate wells across plates and incubated with compounds for 2 h at 37° C. followed by a wash with ice cold PBS buffer. The cells were then lysed in lysis buffer and processed and analyzed for p-ERK/ERK as per manufacturer's instructions (Mesoscale discovery, cat No. […]-3).
# [2] = SHP-2 biochemical assay IC50 (μM)
# [3] = read-out: SHP-2 biochemical assay IC50
compound,measurement,setting,value
"Cc1c(N2CCC3(CC2)Cc2ccccc2[C@H]3N)nc(C)n(-c2cccc(Cl)c2Cl)c1=O (atropisomer, axis not shown) [Compound 74b, (3P)-6-[(1S)-1-amino-1,3-dihydrospiro[indene-2,4′-piperidin]-1′-yl]-3-(2,3-dichlorophenyl)-2,5-dimethyl-3,4-dihydropyrimidin-4-one]",IC50,[1]; [2],0.026 µM
same,IC50,pERK1/2 in KYSE520 cells; 2 h,0.624 µM
"Cc1c(N2CCC3(CC2)C[C@H](C)C[C@H]3N)nc(C)n(-c2cccc(Cl)c2Cl)c1=O (atropisomer, axis not shown) [Compound 111a, (3M)-6-[(1R,3S)-1-amino-3-methyl-8-azaspiro[4.5]decan-8-yl]-3-(2,3-dichlorophenyl)-2,5-dimethyl-3,4-dihydropyrimidin-4-one]",IC50,[1]; [3],0.093 µM
same,IC50,"pERK1/2 in KYSE520 cells; Homo sapiens, KYSE-520, 2 h",0.72 µM
"Cc1nc(N2CCC(C)(N)CC2)cc(=O)n1-c1cccc(Cl)c1Cl (single isomer, unassigned) [Compound 2b, (3M)-6-(4-amino-4-methylpiperidin-1-yl)-3-(2,3-dichlorophenyl)-2-methyl-3,4-dihydropyrimidin-4-one]",IC50,"pERK1/2 in KYSE520 cells; Homo sapiens, KYSE-520, 2 h",4.25 µM
"Cc1nc(N2CCC3(CC2)CO[C@@H](C)[C@H]3N)nc(=O)n1-c1cccc(Cl)c1Cl (single isomer, unassigned) [Compound 37a]",IC50,[1]; [3],1.1 µM
same,IC50,"pERK1/2 in KYSE520 cells; Homo sapiens, KYSE-520, 2 h",11.3 µM
"Cc1nc(N2CCC3(CCC[C@H]3N)CC2)cc(=O)n1-c1cccc(Cl)c1Cl (single isomer, unassigned) [Compound 62b]",IC50,[1]; [2],0.081 µM
same,IC50,"pERK1/2 in KYSE520 cells; Homo sapiens, KYSE-520, 2 h",0.526 µM
"[2H]C([2H])([2H])c1c(N2CCC3(CC2)CO[C@@H](C)[C@H]3N)nc(C)n(-c2cccc(Cl)c2Cl)c1=O (single isomer, unassigned) [Compound 63b]",IC50,[1]; [2],0.015 µM
same,IC50,pERK1/2 in KYSE520 cells; 2 h,0.177 µM
"Cc1c(N2CCC3(CCC[C@H]3N)CC2)nc(N)n(-c2cccc(Cl)c2Cl)c1=O (single isomer, unassigned) [Compound 78d]",IC50,[1]; [2],0.19 µM
same,IC50,"pERK1/2 in KYSE520 cells; Homo sapiens, KYSE-520, 2 h",1.33 µM
"Cc1c(N2CCC3(CC2)Oc2cnccc2[C@H]3N)nc(C)n(-c2cccc(Cl)c2Cl)c1=O (single isomer, unassigned) [Compound 80a]",IC50,[1]; [2],1.4 µM
same,IC50,"pERK1/2 in KYSE520 cells; Homo sapiens, KYSE-520, 2 h",> 10 µM
"Cc1c(N2CCC3(CC2)Oc2cnccc2[C@@H]3N)nc(C)n(-c2cccc(Cl)c2Cl)c1=O (single isomer, unassigned) [Compound 80b]",IC50,[1]; [2],> 10 µM
same,IC50,pERK1/2 in KYSE520 cells; 2 h,16 µM
"Cc1nc(N2CCC3(CC2)Cc2ccccc2[C@H]3N)cc(=O)n1-c1cccc(Cl)c1Cl (single isomer, unassigned) [Compound 119b]",IC50,[1]; [3],0.0008 µM
same,IC50,"pERK1/2 in KYSE520 cells; Homo sapiens, KYSE-520, 2 h",0.005 µM
"Cc1nc(N2CCC(C)(N)CC2)cc(=O)n1-c1cccc(Cl)c1Cl [Compound 2, 6-(4-amino-4-methylpiperidin-1-yl)-3-(2,3-dichlorophenyl)-2-methyl-3,4-dihydropyrimidin-4-one]",IC50,"pERK1/2 in KYSE520 cells; Homo sapiens, KYSE-520, 2 h",5.57 µM
"C[C@@H]1OCC2(CCN(c3cc(=O)n(-c4cccc(Cl)c4Cl)c(N)n3)CC2)[C@@H]1N [Compound 5, 2-amino-6-[(3S,4S)-4-amino-3-methyl-2-oxa-8-azaspiro[4.5]decan-8-yl]-3-(2,3-dichlorophenyl)-3,4-dihydropyrimidin-4-one]",IC50,[1]; [3],0.76 µM
same,IC50,"pERK1/2 in KYSE520 cells; Homo sapiens, KYSE-520, 2 h",14.5 µM
"Cc1c(N2CCC(C)(CN)CC2)nc(C)n(-c2cccc(Cl)c2Cl)c1=O [Compound 18, 6-[4-(aminomethyl)-4-methylpiperidin-1-yl]-3-(2,3-dichlorophenyl)-2,5-dimethyl-3,4-dihydropyrimidin-4-one]",IC50,[1]; [3],0.37 µM
same,IC50,"pERK1/2 in KYSE520 cells; Homo sapiens, KYSE-520, 2 h",1.32 µM
"Cc1nc(N2CCC(N)(CCO)CC2)cc(=O)n1-c1cccc(Cl)c1Cl [Compound 26, 6-[4-amino-4-(2-hydroxyethyl)piperidin-1-yl]-3-(2,3-dichlorophenyl)-2-methyl-3,4-dihydropyrimidin-4-one]",IC50,[1]; [3],0.38 µM
same,IC50,"pERK1/2 in KYSE520 cells; Homo sapiens, KYSE-520, 2 h",2.29 µM
"Cc1nc(N2CCC3(CCC[C@H]3N)CC2)cc(=O)n1-c1cccc(Cl)c1Cl [Compound 27, 6-{(R)-1-amino-8-azaspiro[4.5]decan-8-yl}-3-(2,3-dichlorophenyl)-2-methyl-3,4-dihydropyrimidin-4-one]",IC50,[1]; [3],0.051 µM
same,IC50,"pERK1/2 in KYSE520 cells; Homo sapiens, KYSE-520, 2 h",0.239 µM
"Cc1nc(N2CCC(N)(CO)CC2)cc(=O)n1-c1cccc(Cl)c1Cl [Compound 29, 6-[4-amino-4-(hydroxymethyl)piperidin-1-yl]-3-(2,3-dichlorophenyl)-2-methyl-3,4-dihydropyrimidin-4-one]",IC50,[1]; [3],0.51 µM
same,IC50,"pERK1/2 in KYSE520 cells; Homo sapiens, KYSE-520, 2 h",2.78 µM
"Cc1nc(N2CCC3(CCC3N)CC2)cc(=O)n1-c1cccc(Cl)c1Cl (stereo not drawn) [Compound 35, 6-{1-amino-7-azaspiro[3.5]nonan-7-yl}-3-(2,3-dichlorophenyl)-2-methyl-3,4-dihydropyrimidin-4-one]",IC50,[1]; [3],0.56 µM
same,IC50,"pERK1/2 in KYSE520 cells; Homo sapiens, KYSE-520, 2 h",0.6 µM
"[2H]C([2H])([2H])c1c(N2CCC3(CC2)CO[C@@H](C)[C@H]3N)nc(C)n(-c2cccc(Cl)c2Cl)c1=O [Compound 63, 6-[(3S,4S)-4-amino-3-methyl-2-oxa-8-azaspiro[4.5]decan-8-yl]-3-(2,3-dichlorophenyl)-5-(^2H3)methyl-2-methyl-3,4-dihydropyrimidin-4-one]",IC50,[1]; [2],0.039 µM
same,IC50,pERK1/2 in KYSE520 cells; 2 h,0.467 µM
"Cc1c(N2CCC3(CCC[C@H]3N)CC2)nc(C)n(-c2cccc(Cl)c2Cl)c1=O [Compound 67b, (3M)-6-[(1R)-1-amino-8-azaspiro[4.5]decan-8-yl]-3-(2,3-dichlorophenyl)-2,5-dimethyl-3,4-dihydropyrimidin-4-one]",IC50,[1]; [3],0.041 µM
same,IC50,pERK1/2 in KYSE520 cells; 2 h,0.198 µM
"Cc1c(N2CCC3(CC2)c2ncccc2C[C@H]3N)nc(C)n(-c2cccc(Cl)c2Cl)c1=O [Compound 75, (3M)-6-[(6R)-6-amino-5,6-dihydrospiro[cyclopenta[b]pyridine-7,4′-piperidin]-1′-yl]-3-(2,3-dichlorophenyl)-2,5-dimethyl-3,4-dihydropyrimidin-4-one]",IC50,pERK1/2 in KYSE520 cells; 2 h,0.824 µM
"Cc1c(N2CCC3(CC2)Oc2ncccc2[C@@H]3N)nc(C)n(-c2cccc(Cl)c2Cl)c1=O [Compound 79b, (3M)-6-[(3S)-3-amino-3H-spiro[furo[2,3-b]pyridine-2,4′-piperidin]-1′-yl]-3-(2,3-dichlorophenyl)-2,5-dimethylpyrimidin-4-one]",IC50,[1]; [2],0.006 µM
same,IC50,"pERK1/2 in KYSE520 cells; Homo sapiens, KYSE-520, 2 h",0.102 µM
"Cc1c(N2CCC3(CCC3N)CC2)nc(C)n(-c2cccc(Cl)c2Cl)c1=O (stereo not drawn) [Compound 82, 6-1-amino-7-azaspiro[3.5]nonan-7-yl-3-(2,3-dichlorophenyl)-2,5-dimethyl-3,4-dihydropyrimidin-4-one]",IC50,[1]; [3],0.56 µM
same,IC50,"pERK1/2 in KYSE520 cells; Homo sapiens, KYSE-520, 2 h",6.63 µM
"Cc1c(N2CCC3(CC2)CO[C@@H](C)[C@H]3N)nc(C)n(-c2cccc(Br)c2Cl)c1=O [Compound 95, 6-((3S,4S)-4-Amino-3-methyl-2-oxa-8-aza-spiro[4.5]dec-8-yl)-3-(3-bromo-2-chloro-phenyl)-2,5-dimethyl-3H-pyrimidin-4-one]",IC50,[1]; [3],0.027 µM
same,IC50,"pERK1/2 in KYSE520 cells; Homo sapiens, KYSE-520, 2 h",0.604 µM
"Cc1c(N2CCC3(CC2)CO[C@@H](C)[C@H]3N)nc(C)n(-c2cccc(F)c2Cl)c1=O [Compound 96, 6-((3S,4S)-4-Amino-3-methyl-2-oxa-8-aza-spiro[4.5]dec-8-yl)-3-(2-chloro-3-fluoro-phenyl)-2,5-dimethyl-3H-pyrimidin-4-one]",IC50,[1]; [3],0.15 µM
same,IC50,"pERK1/2 in KYSE520 cells; Homo sapiens, KYSE-520, 2 h",2 µM
"Cc1c(N2CCC3(CC2)CO[C@@H](C)[C@H]3N)nc(C)n(-c2cccc(Cl)c2Br)c1=O [Compound 97, 6-((3S,4S)-4-Amino-3-methyl-2-oxa-8-aza-spiro[4.5]dec-8-yl)-3-(2-bromo-3-chloro-phenyl)-2,5-dimethyl-3H-pyrimidin-4-one]",IC50,[1]; [3],0.078 µM
same,IC50,"pERK1/2 in KYSE520 cells; Homo sapiens, KYSE-520, 2 h",1.3 µM
"Cc1c(N2CCC3(CC2)CO[C@@H](C)[C@H]3N)nc(C)n(-c2ccc(F)c(Cl)c2Cl)c1=O [Compound 99, 6-((3S,4S)-4-Amino-3-methyl-2-oxa-8-aza-spiro[4.5]dec-8-yl)-3-(2,3-dichloro-4-fluoro-phenyl)-2,5-dimethyl-3H-pyrimidin-4-one]",IC50,[1]; [3],0.028 µM
same,IC50,"pERK1/2 in KYSE520 cells; Homo sapiens, KYSE-520, 2 h",0.955 µM
"Cc1c(F)ccc(-n2c(C)nc(N3CCC4(CC3)CO[C@@H](C)[C@H]4N)c(C)c2=O)c1Cl [Compound 103, 6-((3S,4S)-4-Amino-3-methyl-2-oxa-8-aza-spiro[4.5]dec-8-yl)-3-(2-chloro-4-fluoro-3-methyl-phenyl)-2,5-dimethyl-3H-pyrimidin-4-one]",IC50,[1]; [3],0.067 µM
same,IC50,"pERK1/2 in KYSE520 cells; Homo sapiens, KYSE-520, 2 h",2.74 µM
"Cc1c(N2CCC3(CC2)Cc2ccccc2[C@H]3N)nc(C)n(-c2cccc(Br)c2Cl)c1=O [Compound 104, 6-[(1S)-1-amino-1,3-dihydrospiro[indene-2,4′-piperidin]-1′-yl]-3-(3-bromo-2-chlorophenyl)-2,5-dimethyl-3,4-dihydropyrimidin-4-one]",IC50,[1]; [3],0.005 µM
same,IC50,"pERK1/2 in KYSE520 cells; Homo sapiens, KYSE-520, 2 h",0.026 µM
"COc1c(F)ccc(-n2c(C)nc(N3CCC4(CC3)Cc3ccccc3[C@H]4N)c(C)c2=O)c1F [Compound 105, 6-[(1S)-1-amino-1,3-dihydrospiro[indene-2,4′-piperidin]-1′-yl]-3-(2,4-difluoro-3-methoxyphenyl)-2,5-dimethyl-3,4-dihydropyrimidin-4-one]",IC50,[1]; [3],0.006 µM
same,IC50,"pERK1/2 in KYSE520 cells; Homo sapiens, KYSE-520, 2 h",0.01 µM
"Cc1c(N2CCCC(N)(CC(C)O)CC2)nc(C)n(-c2cccc(Cl)c2Cl)c1=O (stereo not drawn) [Compound 115, (3M)-6-[4-amino-4-(2-hydroxypropyl)azepan-1-yl]-3-(2,3-dichlorophenyl)-2,5-dimethyl-3,4-dihydropyrimidin-4-one]",IC50,[1]; [3],3.8 µM
"(3M)-6-[(3aR,6aS)-3a-(aminomethyl)-5- (hydroxymethyl)- octahydrocyclopenta[c]pyrrol-2-yl]-3- (2,3-dichlorophenyl)-2,5-dimethyl-3,4- dihydropyrimidin-4-one [Compound 101]",IC50,[1]; [3],0.23 µM
